{
  "source": "patent US6534524B1",
  "about": "“Indazole compounds and pharmaceutical compositions for inhibiting protein kinases, and methods for their use” (Agouron Pharmaceuticals, Inc., priority 1999, dated 2003)",
  "data": [
    {"test_system": "human umbilical vein endothelial cells (HUVEC)", "assay": "HUVEC proliferation assay (VEGF-stimulated, MTT)", "format": "cell-based", "settings": "Library III; HUVEC proliferation; nominal concentration of 0.5 nM; crude reaction mixtures", "units": {"% inhibition": "%"}, "values": [
      {"smiles": "Cc1cc(NC(=O)c2ccccc2Sc2ccc3c(/C=C/c4ccccn4)n[nH]c3c2)ccc1F", "% inhibition": 9},
      {"smiles": "Cc1ccc(NC(=O)c2ccccc2Sc2ccc3c(/C=C/c4ccccn4)n[nH]c3c2)c(F)c1", "% inhibition": 2},
      {"smiles": "O=C(Nc1cccc2cc(O)ccc12)c1ccccc1Sc1ccc2c(/C=C/c3ccccn3)n[nH]c2c1", "% inhibition": "−22"},
      {"smiles": "Cc1ccc2ccccc2c1NC(=O)c1ccccc1Sc1ccc2c(/C=C/c3ccccn3)n[nH]c2c1", "% inhibition": "−19"},
      {"smiles": "COC(CCCNC(=O)c1ccccc1Sc1ccc2c(/C=C/c3ccccn3)n[nH]c2c1)OC", "% inhibition": 9},
      {"smiles": "Cc1ccnc(NC(=O)c2ccccc2Sc2ccc3c(/C=C/c4ccccn4)n[nH]c3c2)c1", "% inhibition": "−6"},
      {"smiles": "NC(=O)c1ccc(NC(=O)c2ccccc2Sc2ccc3c(/C=C/c4ccccn4)n[nH]c3c2)nc1", "% inhibition": "−2"},
      {"smiles": "CC(=O)c1cccc(NC(=O)c2ccccc2Sc2ccc3c(/C=C/c4ccccn4)n[nH]c3c2)c1", "% inhibition": 5},
      {"smiles": "CC(=O)c1ccc(NC(=O)c2ccccc2Sc2ccc3c(/C=C/c4ccccn4)n[nH]c3c2)cc1", "% inhibition": 6},
      {"smiles": "O=C(Nc1ccc2ccccc2n1)c1ccccc1Sc1ccc2c(/C=C/c3ccccn3)n[nH]c2c1", "% inhibition": 18},
      {"smiles": "CCc1ccnc(NC(=O)c2ccccc2Sc2ccc3c(/C=C/c4ccccn4)n[nH]c3c2)c1", "% inhibition": 20},
      {"smiles": "CCc1ccc(C)nc1NC(=O)c1ccccc1Sc1ccc2c(/C=C/c3ccccn3)n[nH]c2c1", "% inhibition": "−23"},
      {"smiles": "COc1ccc(NC(=O)c2ccccc2Sc2ccc3c(/C=C/c4ccccn4)n[nH]c3c2)cc1F", "% inhibition": 9},
      {"smiles": "COC(=O)c1nccnc1NC(=O)c1ccccc1Sc1ccc2c(/C=C/c3ccccn3)n[nH]c2c1", "% inhibition": 7},
      {"smiles": "CCOC(=O)c1ccccc1NC(=O)c1ccccc1Sc1ccc2c(/C=C/c3ccccn3)n[nH]c2c1", "% inhibition": "−4"},
      {"smiles": "Cc1c(O)ccc(NC(=O)c2ccccc2Sc2ccc3c(/C=C/c4ccccn4)n[nH]c3c2)c1C", "% inhibition": 4},
      {"smiles": "O=C(Nc1ccc(O)cc1Cl)c1ccccc1Sc1ccc2c(/C=C/c3ccccn3)n[nH]c2c1", "% inhibition": 7},
      {"smiles": "O=C(Nc1nc[nH]c1[N+](=O)[O-])c1ccccc1Sc1ccc2c(/C=C/c3ccccn3)n[nH]c2c1", "% inhibition": 7},
      {"smiles": "O=C(Nc1ncnc2[nH]cnc12)c1ccccc1Sc1ccc2c(/C=C/c3ccccn3)n[nH]c2c1", "% inhibition": 18},
      {"smiles": "O=C(Nc1nc(Cl)ncc1F)c1ccccc1Sc1ccc2c(/C=C/c3ccccn3)n[nH]c2c1", "% inhibition": 11},
      {"smiles": "O=C(Nc1ccc2c(c1)C(=O)NC2=O)c1ccccc1Sc1ccc2c(/C=C/c3ccccn3)n[nH]c2c1", "% inhibition": "−31"},
      {"smiles": "NC(=O)c1[nH]cnc1NC(=O)c1ccccc1Sc1ccc2c(/C=C/c3ccccn3)n[nH]c2c1", "% inhibition": "−1"},
      {"smiles": "CC(C)(C)c1ccc(O)c(NC(=O)c2ccccc2Sc2ccc3c(/C=C/c4ccccn4)n[nH]c3c2)c1", "% inhibition": "−3"},
      {"smiles": "Cc1cccc(O)c1NC(=O)c1ccccc1Sc1ccc2c(/C=C/c3ccccn3)n[nH]c2c1", "% inhibition": 11},
      {"smiles": "O=C(Nc1cc(Cl)ccc1Cl)c1ccccc1Sc1ccc2c(/C=C/c3ccccn3)n[nH]c2c1", "% inhibition": 15},
      {"smiles": "Cc1cccc(C(C)C)c1NC(=O)c1ccccc1Sc1ccc2c(/C=C/c3ccccn3)n[nH]c2c1", "% inhibition": "−37"},
      {"smiles": "Cc1cccc(C)c1NC(=O)c1ccccc1Sc1ccc2c(/C=C/c3ccccn3)n[nH]c2c1", "% inhibition": "−20"},
      {"smiles": "COc1cccc(C)c1NC(=O)c1ccccc1Sc1ccc2c(/C=C/c3ccccn3)n[nH]c2c1", "% inhibition": 8},
      {"smiles": "C=C(C)c1ccccc1NC(=O)c1ccccc1Sc1ccc2c(/C=C/c3ccccn3)n[nH]c2c1", "% inhibition": "−41"},
      {"smiles": "CC(C)(C)c1nnc(NC(=O)c2ccccc2Sc2ccc3c(/C=C/c4ccccn4)n[nH]c3c2)s1", "% inhibition": "−28"},
      {"smiles": "Cc1nnc(NC(=O)c2ccccc2Sc2ccc3c(/C=C/c4ccccn4)n[nH]c3c2)s1", "% inhibition": "−20"},
      {"smiles": "O=C(Nc1nnc(C2CC2)s1)c1ccccc1Sc1ccc2c(/C=C/c3ccccn3)n[nH]c2c1", "% inhibition": "−20"},
      {"smiles": "O=C(NCC1CCCCC1)c1ccccc1Sc1ccc2c(/C=C/c3ccccn3)n[nH]c2c1", "% inhibition": 3},
      {"smiles": "O=C(NC1CCCCC1C1CCCCC1)c1ccccc1Sc1ccc2c(/C=C/c3ccccn3)n[nH]c2c1", "note": "(stereo not shown)", "% inhibition": 11},
      {"smiles": "CCOc1ccccc1CCNC(=O)c1ccccc1Sc1ccc2c(/C=C/c3ccccn3)n[nH]c2c1", "% inhibition": 1},
      {"smiles": "COc1ccc(OC)c(NC(=O)c2ccccc2Sc2ccc3c(/C=C/c4ccccn4)n[nH]c3c2)c1", "% inhibition": "−5"},
      {"smiles": "COc1cc(NC(=O)c2ccccc2Sc2ccc3c(/C=C/c4ccccn4)n[nH]c3c2)cc(OC)c1", "% inhibition": "−60"},
      {"smiles": "COC(=O)c1ccc(NC(=O)c2ccccc2Sc2ccc3c(/C=C/c4ccccn4)n[nH]c3c2)c(C)c1", "% inhibition": "−46"},
      {"smiles": "O=C(NCC(F)(F)C(F)(F)F)c1ccccc1Sc1ccc2c(/C=C/c3ccccn3)n[nH]c2c1", "% inhibition": "−22"},
      {"smiles": "N#CC(NC(=O)c1ccccc1Sc1ccc2c(/C=C/c3ccccn3)n[nH]c2c1)c1ccc(F)cc1", "note": "(stereo not shown)", "% inhibition": "−20"},
      {"smiles": "O=C(NCc1ccc(F)cc1Cl)c1ccccc1Sc1ccc2c(/C=C/c3ccccn3)n[nH]c2c1", "% inhibition": "−7"},
      {"smiles": "CCCCC(CO)NC(=O)c1ccccc1Sc1ccc2c(/C=C/c3ccccn3)n[nH]c2c1", "note": "(stereo not shown)", "% inhibition": "−28"},
      {"smiles": "O=C(Nc1ccc(O)c(F)c1)c1ccccc1Sc1ccc2c(/C=C/c3ccccn3)n[nH]c2c1", "% inhibition": "−10"},
      {"smiles": "O=C(NC(CO)CC1CCCCC1)c1ccccc1Sc1ccc2c(C=Cc3ccccn3)n[nH]c2c1", "note": "(stereo not shown)", "% inhibition": 13},
      {"smiles": "CC(C)(C)C(CO)NC(=O)c1ccccc1Sc1ccc2c(C=Cc3ccccn3)n[nH]c2c1", "note": "(stereo not shown)", "% inhibition": "−7"},
      {"smiles": "O=C(Nc1cccc(-c2ccccc2)c1)c1ccccc1Sc1ccc2c(/C=C/c3ccccn3)n[nH]c2c1", "% inhibition": "−13"},
      {"smiles": "CSCCC(CO)NC(=O)c1ccccc1Sc1ccc2c(/C=C/c3ccccn3)n[nH]c2c1", "note": "(stereo not shown)", "% inhibition": "−45"},
      {"smiles": "CCC(C)C(CO)NC(=O)c1ccccc1Sc1ccc2c(C=Cc3ccccn3)n[nH]c2c1", "note": "(stereo not shown)", "% inhibition": "−40"},
      {"smiles": "CCOC(CCCNC(=O)c1ccccc1Sc1ccc2c(/C=C/c3ccccn3)n[nH]c2c1)OCC", "% inhibition": "−11"},
      {"smiles": "O=C(NCCSCCO)c1ccccc1Sc1ccc2c(/C=C/c3ccccn3)n[nH]c2c1", "% inhibition": "−31"},
      {"smiles": "CC(C)c1ccccc1NC(=O)c1ccccc1Sc1ccc2c(/C=C/c3ccccn3)n[nH]c2c1", "% inhibition": "−30"},
      {"smiles": "CSCCC(CO)NC(=O)c1ccccc1Sc1ccc2c(C=Cc3ccccn3)n[nH]c2c1", "note": "(stereo not shown)", "% inhibition": "−11"},
      {"smiles": "CC(C)(CO)NC(=O)c1ccccc1Sc1ccc2c(/C=C/c3ccccn3)n[nH]c2c1", "% inhibition": "−2"},
      {"smiles": "CSCCNC(=O)c1ccccc1Sc1ccc2c(/C=C/c3ccccn3)n[nH]c2c1", "% inhibition": 18},
      {"smiles": "CCSCCNC(=O)c1ccccc1Sc1ccc2c(/C=C/c3ccccn3)n[nH]c2c1", "% inhibition": 7},
      {"smiles": "CCCCN(CCCC)CCNC(=O)c1ccccc1Sc1ccc2c(/C=C/c3ccccn3)n[nH]c2c1", "% inhibition": 1},
      {"smiles": "COC(OC)C(C)NC(=O)c1ccccc1Sc1ccc2c(/C=C/c3ccccn3)n[nH]c2c1", "note": "(stereo not shown)", "% inhibition": 0},
      {"smiles": "O=C(NC(CO)(CO)CO)c1ccccc1Sc1ccc2c(/C=C/c3ccccn3)n[nH]c2c1", "% inhibition": 14},
      {"smiles": "CCC(CO)(CO)NC(=O)c1ccccc1Sc1ccc2c(/C=C/c3ccccn3)n[nH]c2c1", "% inhibition": 61},
      {"smiles": "CCC(C)C(NC(=O)c1ccccc1Sc1ccc2c(C=Cc3ccccn3)n[nH]c2c1)C(=O)NO", "note": "(stereo not shown)", "% inhibition": 9},
      {"smiles": "O=C(Nc1ccc2ncccc2c1)c1ccccc1Sc1ccc2c(/C=C/c3ccccn3)n[nH]c2c1", "% inhibition": 1}
    ]}
  ]
}
